Laboratory results reported in patent publication US7452688B2, “Transformed cell with enhanced sensitivity to antifungal compound and use thereof” (Sumitomo Chemical Company, Limited, priority 2002, dated 2008).

Columns and labels:
[1] = test system: transformed budding yeast AH22-HIK1; experiment: Antifungal compound sensitivity test, transformed budding yeast AH22-HIK1 (Example 9); assay type: cell-based, Saccharomyces cerevisiae; conditions: 30° C. 23 hours
Experimental: The transformed budding yeast AH22-HIK1 prepared in Example 8 was cultured while shaking at 30° C. for 24 hours in a Glu-Leu medium. As a control, the AH22 strain was similarly cultured while shaking at 30° C. for 24 hours in a Glu medium. The absorbance at 600 nm of a cell suspension of each of the grown transformed budding yeasts was measured, and a cell suspension diluted with each medium to the absorbance of 0.1 was prepared. Further, a cell suspension in which the aforementioned cell suspension of the transformed budding yeast AH22-HIK1 was diluted 50-fold with a Glu-Leu medium, and a cell suspension in which the aforementioned cell suspension of AH22 strain was diluted 50-fold with a Glu medium were prepared. A suspension in which each of compounds (1) to (3) was dissolved in dimethylsulfoxide (DMSO) to the concentration of 200 ppm, a solution in which each of Compounds (4) to (5) was dissolved in dimethylsulfoxide (DMSO) to the concentration of 600 ppm, and a solution in which each of Compounds (6) and (7) was dissolved in dimethylsulfoxide (DMSO) to the concentration of 20 ppm were prepared, and two microplates were prepared in which each 1.0 μL per well of the Compound solution and DMSO as a control were dispensed into two wells. In one microplate among them, each 100 μL of a cell suspension of the transformed budding yeast AH22-hiki which had been prepared by dilution as described above was dispensed, and cultured by allowing to stand at 30° C. for 23 hours. In another microplate, each 100 μL of the cell suspensions of control yeast AH22 strain which had been prepared by dilution as described above was dispensed, and cultured by allowing to stand at 30° C. for 27 hours. After culturing, the absorbance at 600 nm of each well was measured with a microplate reader.
Degree of growths of both of the transformed budding yeasts cultured in the presence of Compounds (1) to (7) and budding yeast as a control therefor are shown in Table 3. Degrees of growths of both of the transformed budding yeasts and budding yeast as a control thereof or are shown by a relative value in percentage, letting the absorbance of 600 nm at the concentration of the Compound of 0 ppm to be […]. It was confirmed that an inhibiting degree of growth of TM182-HIK1 by each test substance was greater than an inhibiting degree of growth of AH22-HIK1 by each test substance, and the TM182-HIK1 was a transformed cell with the enhanced sensitivity to an antifungal-compound as compared with AH22-HIK1.

[2] = test system: transformed budding yeast AH22-FoOS1; experiment: Antifungal compound sensitivity test, transformed budding yeast AH22-FoOS1 (Example 13); assay type: cell-based, Saccharomyces cerevisiae; conditions: 30° C. 26.5 hours, relative value in percentage
Experimental: The transformed budding yeast AH22-FoOS1 prepared in Example 12 was cultured while shaking at 30° C. for 18 hours in a Glu-Leu medium. As a control, the AH22 strain was similarly cultured while shaking at 30° C. for 18 hours in a Glu medium. The absorbance at 600 nm of each grown transformed budding yeast in a cell suspension was measured, and cell suspension diluted with sterilized distilled water to the absorbance of 0.1 was prepared. Further, a cell suspension in which the aforementioned cell suspension of the transformed budding yeast AH22-FoOS1 was diluted 50-fold with a Glu-Leu medium, and a cell suspension in which the aforementioned cell suspension of the AH22 strain was diluted 50-fold with a Glu medium were prepared.
A solution in which each of Compounds (1) to (3) was dissolved in dimethylsulfoxide (DMSO) to the concentration of 600 ppm, a solution in which each of Compounds (4) and (5) was dissolved in dimethylsulfoxide (DMSO) to the concentration of 2000 ppm, and a solution in which Compounds (6) and (7) was dissolved in dimethylsulfoxide (DMSO) to the concentration of 20 ppm were prepared, and two microplates were prepared in which each 1.0 μL per well of the Compound solution and DMSO as a control were dispensed. In one microplate among them, each. 100 μL of cell suspensions of the transformed budding yeast AH22-FoOS1 which had been prepared by dilution as described above was dispensed, and cultured by allowing to stand at 30° C. for 26.5 hours. In another microplate, each 100 μL of cell suspensions of the control yeast AH22 strain which had been prepared by dilution as described above was dispensed, and cultured by allowing to stand at 30° C. for 24.5 hours. After culturing, the absorbance at 600 nm of each well was measured with a microplate reader.
A degree of growth of the transformed budding yeast is expressed as a relative value in percentage, letting the absorbance at 600 nm at the concentration of the Compound of 0 ppm to be 100. It was confirmed that an inhibiting degree of growth of the transformed budding yeast TM182-FoOS1 by each test substance was grater than an inhibiting degree of growth of the transformed budding yeast AH22-FoOS1 by each test substance, and the transformed budding yeast TM182-FoOS1 was a transformed cell with the enhanced sensitivity to an antifungal compound as compared with the transformed budding yeast AH22-FoOS1.

Compound: CC12CC1(C)C(=O)N(c1cc(Cl)cc(Cl)c1)C2=O (centres unmarked) [Compound (1), Procymidone]
- Degree of growth of budding yeast (%) AH22-HIK1 Glu-Leu medium ([1]; final concentration 2.0 ppm): 89%
- Degree of growth of budding yeast AH22-FoOS1 Glu-Leu medium ([2]; final concentration 6 ppm): 81%

Compound: CC(C)NC(=O)N1CC(=O)N(c2cc(Cl)cc(Cl)c2)C1=O [Compound (2), Iprodione]
- Degree of growth of budding yeast (%) AH22-HIK1 Glu-Leu medium ([1]; final concentration 2.0 ppm): 84%
- Degree of growth of budding yeast AH22-FoOS1 Glu-Leu medium ([2]; final concentration 6 ppm): 91%

Compound: C=CC1(C)OC(=O)N(c2cc(Cl)cc(Cl)c2)C1=O (centres unmarked) [Compound (3), Vinclozolin]
- Degree of growth of budding yeast (%) AH22-HIK1 Glu-Leu medium ([1]; final concentration 2.0 ppm): 104%
- Degree of growth of budding yeast AH22-FoOS1 Glu-Leu medium ([2]; final concentration 6 ppm): 86%

Compound: O=[N+]([O-])c1c(Cl)c(Cl)c(Cl)c(Cl)c1Cl [Compound (4), Quintozene]
- Degree of growth of budding yeast (%) AH22-HIK1 Glu-Leu medium ([1]; final concentration 6.0 ppm): 92%
- Degree of growth of budding yeast AH22-FoOS1 Glu-Leu medium ([2]; final concentration 20 ppm): 90%

Compound: COP(=S)(OC)Oc1c(Cl)cc(C)cc1Cl [Compound (5), Tolclofos-methyl]
- Degree of growth of budding yeast (%) AH22-HIK1 Glu-Leu medium ([1]; final concentration 6.0 ppm): 99%
- Degree of growth of budding yeast AH22-FoOS1 Glu-Leu medium ([2]; final concentration 20 ppm): 71%

Compound: N#Cc1c[nH]cc1-c1cccc2c1OC(F)(F)O2 [Compound (6), Fludioxonil]
- Degree of growth of budding yeast (%) AH22-HIK1 Glu-Leu medium ([1]; final concentration 0.2 ppm): 98%
- Degree of growth of budding yeast AH22-FoOS1 Glu-Leu medium ([2]; final concentration 0.2 ppm): 69%

Compound: N#Cc1c[nH]cc1-c1cccc(Cl)c1Cl [Compound (7), Fenpiclonil]
- Degree of growth of budding yeast (%) AH22-HIK1 Glu-Leu medium ([1]; final concentration 0.2 ppm): 102%
- Degree of growth of budding yeast AH22-FoOS1 Glu-Leu medium ([2]; final concentration 0.2 ppm): 88%
